The text below walks through data of ChEMBL document CHEMBL3301361, “Experimental in vitro DMPK and physicochemical data on a set of publicly disclosed compounds”.

Converted amounts (≈) assume the structure as drawn.

A short description of data set [1]: in vitro. To be noted: mouse, plasma.
Data set [2] in a line: in vitro. Conditions: human, plasma.
A short description of data set [3]: in vitro. Conditions: human, microsomes.
Data set [4] is described as follows: physchem. To be noted: octan-1-ol/water.
Data set [5] can be described thus: physchem.
The nature of data set [6]: in vitro. Conditions: Beagle, dog, plasma.
A short description of data set [7]: in vitro. To be noted: SD, HW or BN, rat, plasma.
Data set [8] in a line: physchem. The source holds these as a separate data set.
The nature of data set [9]: physchem. To be noted: pH 7.4 buffer.
A short description of data set [10]: in vitro. Conditions: human, hepatocytes.
The nature of data set [11]: in vitro. Conditions: hepatocytes.

One may read the fraction unbound as the share of the substance not bound to proteins or other matrix. A high value points to much free substance. The microsomal CLint is a measure of how fast metabolising enzymes remove a compound, apart from limits set by blood flow. In general, logD refers to lipophilicity at a set pH, counting ionised and neutral species. Read a low logD as a more hydrophilic compound. The term pKa denotes the pH at which an ionisable group is half protonated. Higher therefore signals a weaker acid or stronger base. As a reminder, the thermodynamic solubility is solubility found after equilibrating the solid with the medium. As a reminder, the hepatocyte CLint is the rate of metabolic loss divided by the concentration. Higher therefore signals faster metabolism.

The compound `CC(C)[C@@H]1CC[C@@H](C)C[C@@H]1P(=O)(c1ccccc1)c1ccccc1` had a fraction unbound at 5 h in data set [1] of 0.0039.
`O=c1c2cc(-c3ccc(Cl)cc3)oc2ccn1-c1ccc2c(cnn2CCN2CCCC2)c1` gave a fraction unbound at 5 h in data set [1] of 0.0043.
Regarding `C/C=C/c1ccc(Oc2nnnn2-c2ccc(C(N)=O)cc2)c(OC)c1`, the values for the fraction unbound at 5 h in data set [1] and in data set [2] were 0.0428 and 0.0268, respectively.
Regarding `C[C@H]1CN(Cc2cc(Cl)ccc2OCC(=O)O)CCN1C(=O)Cc1ccccc1`, in data set [3], the intrinsic metabolic clearance (microsomal CLint) is under 3 µL/min/mg. The same compound displayed a log distribution coefficient (logD) in data set [4] (pH 7.4) of 0.18. Besides, the fraction unbound at 5 h in [2] is 0.0262; in data set [6], 0.0784; in data set [7] it was 0.11. Moreover, the results for the pKa in [5] and in data set [8] were 2.5 and 7, respectively.
On to `N#Cc1c(-c2ccc(-c3ccccc3OC(F)(F)F)cc2)nc2ccncc2c1O`, for which, in data set [1], the unbound share (fraction unbound) at 5 h is 0.0013. In addition, the solubility (thermodynamic) in [9] stood at 3.3 µM (≈ 1.34 µg/mL). For the same compound, the logD in [4] (pH 7.4, LogD7.4) came to 3.45.
In data set [1], `Cc1nn(C)c(C)c1-c1ccc(-c2nc3ccncc3c(O)c2C#N)cc1` gave a fraction unbound at 5 h of 0.0343.
The same measure, in the same setting: to `CC(C)Oc1ccc(-c2nc(-c3cccc4c(CCC(=O)O)c[nH]c34)no2)cc1Cl` belongs 0.0005.
In [1], `Nc1scc2c(C(=O)NC3CC3)nn(-c3ccc(F)cc3)c(=O)c12` had a fraction unbound at 5 h of 0.11. This compound also displayed a pH-dependent lipophilicity (logD) in [4] (pH 7.4, LogD7.4) of 2.8.
In the case of `C[C@@H](CC(=O)OC(C)(C)C)NC(=O)C1=NOC(C(O)(C(F)(F)F)C(F)(F)F)C1` (stereo partly specified), the free fraction (fraction unbound) at 5 h in data set [1] is 0.201.
With `CN1C(=N)N[C@](C)(c2cc(-c3cccc(C#N)c3)cs2)CC1=O`, the unbound share (fraction unbound) at 5 h in data set [1] was 0.249; in data set [2] (PPB) it was 0.0836.
For `CC#Cc1cncc(-c2csc([C@]3(C)CC(=O)N(C)C(N)=N3)c2)c1` the same measures were 0.17 and 0.119.
With `CCC#Cc1cncc(-c2ccc3c(c2)C2(N=C(C)C(N)=N2)[C@]2(CC[C@H](OC)CC2)C3)c1` (stereo partly specified), the fraction unbound at 5 h in [1] is 0.02.
Turning to `Cn1c(-c2cccc(F)c2)nc2c(N)nc(C#CC3(O)CCCC3)nc21`, the fraction unbound at 5 h in data set [1] is 0.0752; in data set [2] (PPB) it was 0.119.
In the case of `OC1(c2ccc(Cl)cc2)CCN(Cc2c[nH]c3ccccc23)CC1`, the unbound share (fraction unbound) at 5 h in data set [1] is 0.0872. The thermodynamic solubility in [9] turned out to be 562 µM (≈ 192 µg/mL). In data set [4] (pH 7.4), the log distribution coefficient (logD) amounted to 2.25.
In data set [1], `COc1cc(-n2nnc3cc(-c4ccc(Cl)cc4)sc3c2=O)ccc1N1CC[C@@H](O)C1` gave a fraction unbound at 5 h of 0.0021. This compound also showed a pH-dependent lipophilicity (logD) in [4] (pH 7.4, LogD7.4) of 3.15.
For `Fc1ccc(-c2cc(C3CCN(Cc4ccn(-c5ccc(C(F)(F)F)cc5)c4)CC3)no2)cc1`, in data set [1], the fraction unbound at 5 h is 0.0005.
As to `COc1ccc(-c2cc(C(F)F)nn2-c2ccc(S(N)(=O)=O)cc2)cc1F` [DERACOXIB], the fraction unbound at 5 h in data set [1] is 0.0268. Also, the logD in data set [4] (pH 7.4, LogD7.4) was determined as 2.8.
In the case of `O=C(Nc1ccc(Cl)c(S(=O)(=O)N2CCNCC2)c1O)Nc1cccc(F)c1Cl` [ELUBRIXIN], the solubility (thermodynamic) in data set [9] came to 457 µM (≈ 212 µg/mL). In addition, the hepatocyte CLint was under 3 µL/min/1e6 cells in [10] and 41.4 µL/min/1e6 cells in [11]. Further, the log distribution coefficient (logD) in data set [4] (pH 7.4, LogD7.4) is 2.6. The unbound share (fraction unbound) at 5 h is 0.0029 in data set [2] (PPB), 0.0127 in data set [6] and 0.0106 in [7]. For the same compound, the pKa in [5] stood at 5.9; in data set [8], 8.5.
As for `CCCn1c(=O)c2[nH]c(-c3cnn(Cc4cccc(C(F)(F)F)c4)c3)nc2n(CC)c1=O` [GS 6201], in data set [1], the fraction unbound at 5 h worked out at 0.001.
For the compound `CC[C@H](Nc1ncnc2[nH]cnc12)c1nc2cccc(F)c2c(=O)n1-c1ccccc1` [IDELALISIB], the fraction unbound at 5 h in data set [1] is 0.19. Moreover, the logD in data set [4] (pH 7.4, LogD7.4) turned out to be 2.72.
On to `CCN(CC)CCNC(=O)c1ccc(NS(C)(=O)=O)cc1` [SEMATILIDE], for which the results for the fraction unbound at 5 h in data set [2] (PPB), in [6] and in data set [7] were 0.849, 0.899 and 0.899, respectively. Also, the pKa stood at 7.52 in data set [5] and 9.35 in [8].
